Experimental findings from patent publication US20220074923A1, “METHODS OF IDENTIFYING PARKIN-MEDIATED MITOPHAGY ACTIVATING AGENTS” (THE GOVERNING COUNCIL OF THE UNIVERSITY OF TORONTO, priority 2018, published 2022) are described below.

Where two headings read alike, the source gives them in different places.

The test system of experiment [1] is HeLa cells. As to the kind of experiment: HK2 distribution after mitochondrial damage. Particulars: HeLa cells which lack endogenous Parkin. Type of experiment: cell-based. The source says:
Since HK2 is also a Parkin substrate, HeLa cells which lack endogenous Parkin were used to examine the effect of SR3677 treatment on HK2 distribution^43.

Experiment [2] has as its system HEK293 GFP Parkin cells. The experiment in a line: High throughput small molecule screen for Parkin recruitment to mitochondria (high content imaging). Type of experiment: cell-based. To be noted: 4 μM, 16 h, then CCCP 2 h; rank out of 480; low rank = activator of Parkin recruitment, high rank = inhibitor. Here is the method:
10 uL of 0.1 mg/mL Poly-D-Lys solution was added to 384-well plates for 5 minutes, followed by a PBS wash. Plates were dried for at least 2 hours. 50 μL of 600 000 HEK293 GFP Parkin cell/mL of DMEM was dispensed into each well. After 24 hours incubation to allow the cells to adhere, 200 nL of small molecules (or DMSO in columns 1, 2, 23 and 24) were pinned. Following a 16-hour incubation, 200 nL of 5 mM CCCP were added to all wells except columns 1 and 2, into which 200 nL of DMSO was added. Following 2-hour incubation, cells were fixed with 4% paraformaldehyde (PFA) and stained with 50 μL of 1 μg/mL DAPI solution for 15 minutes. After the final PBS wash, plates were ready for high content microscopy.
Images were acquired on IN Cell Analyzer 6000 (GE Healthcare), equipped with sCMOS camera (2048×2048), and 20x/0.45 NA Plan Fluor objective (Nikon) in open aperture mode using 1×1 binning. Image analysis was performed using Columbus Image Analysis System (PerkinElmer). Nuclei were initially detected in DAPI channel, followed by whole cell segmentation in GFP channel. Using PhenoLOGIC machine learning plug-in, cells were split into 2 sub-populations: cells with even GFP-Parkin distribution and cells where GFP-Parkin was localized to mitochondria. The percentage of cells with mitochondrial GFP-Parkin was determined per well. The molecules were then rank ordered based on z-score, which is calculated using the formula: […]
where x is the percentage of cells with mitochondrial GFP-Parkin for a specific small molecule, μ is the average percentage of cells with mitochondrial Parkin in positive control columns 23 and 24, where cells are treated with CCCP only.
These cell lines were screened across 2 biological replicates with compounds from the kinase inhibitor (n=480) and Prestwick (n=1120) collections. The 3-day screening protocol consisted of (1) seeding cells, (2) pinning small molecules at 4 μM concentration and (3) inducing mitophagy with CCCP, followed by processing of plates for high content imaging. Following image acquisition, DAPI staining was used to segment cells within each image. Supervised machine learning was used to classify cells into two classes: (1) cells with cytosolic Parkin distribution and (2) those with Parkin localized to mitochondria. […] Compounds which increased the proportion of class 2 cells across 2 biological replicates, compared to the CCCP-only treated cells (FIG. 10), as indicated by their z-score (FIG. 11), were considered hits.

The test system of experiment [3] is SH-SY5Y cells. As to the kind of experiment: Cell viability by crystal violet staining. Type of experiment: cell-based. Particulars: 0.5 μM pre-treatment, 10 μM CCCP 24 hours. Here is the method:
A) SH-SY5Y cells were pre-treated with either DMSO or 0.5 μM SR3677 prior to addition of either DMSO or 10 μM CCCP for 24 hours. Following treatment, cells were washed, fixed with 4% paraformaldehyde and stained with crystal violet dye. B) The OD at 550 nm was measured to assess crystal violet staining.
To determine whether these findings could be translated into dopaminergic neurons, the study was continued in the dopaminergic neuroblastoma SH-SY5Y cell line. Parkin undergoes a similar CCCP-dependent subcellular transition from cytosol to mitochondria in these cells^12. First, whether the viability of these cells would be improved by SR3677 was investigated. Initially, experiments were conducted using crystal violet staining as an indicator of cell viability. […] Next, SH-SY5Y cells were differentiated into a more neuron-like population according to protocols previously described^10 and ATP levels were measured. […] Varying concentrations of SR3677 were co-administered alongside the PD-causing toxin paraquat.

The subject of experiment [4] is Drosophila. Type of experiment: in vivo. Here is the method: Fresh vials containing standard fly food supplemented with the indicated treatments were changed out every 2 days. The number of flies surviving each day was counted and log-rank tests were performed to determine statistical significance. 20 flies per treatment, n=5 (c) The climbing ability of flies treated as described in (a and bin) was assessed 4 days following initial administration of treatments. The number of flies to climb beyond 9.5 cm every 10 seconds was assessed. The percentage of flies in each treatment to cross this line was determined. The climbing ability of each treatment was normalized to the control group treated with water only. 20 flies per treatment, n=5. (d) The climbing ability of UAS-park^RNAi and ddc-GAL4>UAS-park^RNAi flies fed either paraquat or paraquat in combination with SR3677. 20 flies per treatment, n=7. (e) Proteins lysates from UAS-park^RNAi or tubulin>UAS-park^RNAi whole flies were separated by SDS-PAGE. Immunoblotting with anti-Parkin and anti-actin antibody was performed. (f) The climbing ability of TH-GAL flies fed either paraquat or paraquat in combination with SR3677. (g) Survival of heteroplasmic mt:Coll^T300l flies fed fly food supplemented with water or 2 mM SR3677 and wild-type Canton(S) flies (n=3 independent experiments). (h) The climbing ability of heteroplasmic mt:Coll^T300l flies fed either water or 2 mM SR3677 for 7 days. Log-rank tests were performed to determine p-values for survival analyses (a, b, g), *P<0.05. P-values were determined by one-tailed paired student's t-test for all climbing assays (c-e, h), *P<0.05. Data is expressed as mean±s.e.m. All error bars represent s.e.m
Male Canton(S) Drosophila were aged 7 days prior to feeding with standard fly food supplemented with water, 10 mM paraquat, 1 mM SR3677, or with combinations of these chemicals. Flies were placed into new vials containing fresh food supplemented with the treatments previously administered and 2 days later, climbing assays were performed. Flies were placed into plastic cylinder vials and tapped down, so all flies fell to the bottom. The number of flies to climb beyond 12.5 cm was counted every 10 s and values are represented as the percentage of total flies in each treatment group.

In the case of `CN(C)CCOc1cc(-c2cn[nH]c2)ccc1NC(=O)[C@@H]1COc2ccccc2O1` [SR3677], the “mitochondrial distribution of HK2 following mitochondrial damage” value in experiment [1] is “increases the mitochondrial distribution of HK2”. Moreover, the “rank in the kinase inhibitor library screen (rank order by z-score)” value in experiment [2] is on record as 71/480. For the same molecule, in experiment [3], the “crystal violet staining (OD)” value was “increased crystal violet”. Moreover, in experiment [4] (Canton(S), 1 mM SR3677 with 10 mM paraquat), the “climbing ability of paraquat-treated flies” value is reported as “restores climbing ability”. Moreover, the “climbing ability with paraquat” value in experiment [4] (TH-GAL4, UAS-rok^RNAi flies) is reported as “No further improvement to climbing ability”; in experiment [4] (UAS-park^RNAi flies), “improved”. The paraquat-induced climbing defects result in experiment [4] (ddc-GAL4>UAS-park^RNAi flies) is on record as “no improvement”.
